Some test systems named below: A498 renal; A549 NSCLC; CAKI-1 renal; HL-60(TB) leukemia; HOP-62 NSCLC; M14 melanoma; MALME-3M melanoma; NCI-H460 lung; PC-3 prostate; SF-268 CNS.
Test in all cases: inhibition of tumour cell growth, NCI panel, 48 h

Where “and” joins values, the source holds several entries; their conditions need not be identical. Equal values may be shown once.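 Cultured in 96-well plates, cells were exposed to test compound for 48 hours across five concentrations. Here, GI50 denotes the concentration required for 50% inhibition of growth. TGI: concentration producing complete growth inhibition.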

In the case of `Cc1cc2c(=O)c3ccccc3oc2c(C#N)c1C`, the TGI with A498 renal, in the assay with A549 NSCLC, with CAKI-1 renal, in the assay on HL-60(TB) leukemia, in the assay on HOP-62 NSCLC and in the assay on M14 melanoma was above 100 µM throughout. Further, the TGI in the assay on MALME-3M melanoma, with NCI-H460 lung, in the assay with PC-3 prostate and in the assay on SF-268 CNS was above 100 µM each time.
For the compound `CS(=O)(=O)c1ccc(-c2[nH]c3ccc(F)cc3c2/C=N/NC(N)=S)cc1`, the GI50 in the assay on A498 renal was 0.347 µM; with A549 NSCLC, 2.86 µM; in the assay on CAKI-1 renal it was 3.86 µM; in the assay with HL-60(TB) leukemia it was 0.396 µM; in the assay with HOP-62 NSCLC it was 1.64 µM; with M14 melanoma, 0.312 µM. Besides, the GI50 in the assay on MALME-3M melanoma was 7.83 µM; with NCI-H460 lung, 2.28 µM; in the assay on PC-3 prostate it was 0.51 µM; with SF-268 CNS, 2.42 µM. The TGI is 5.18 µM in the assay with A498 renal; above 100 µM in the assay on A549 NSCLC; above 100 µM in the assay with CAKI-1 renal; 5.05 µM with HL-60(TB) leukemia; above 100 µM with HOP-62 NSCLC; 22.3 µM in the assay on M14 melanoma. The TGI was 41 µM in the assay with MALME-3M melanoma, above 100 µM in the assay on NCI-H460 lung, 26.8 µM in the assay on PC-3 prostate and above 100 µM with SF-268 CNS.
`Cc1nc2sc(C(=O)Nc3cccc(Cl)c3C)c(N)c2cc1C(=O)c1ccccc1`: the GI50 with A498 renal was 0.124 µM; in the assay on A549 NSCLC, 0.245 µM; in the assay on CAKI-1 renal, 0.214 µM; with HL-60(TB) leukemia it was 0.147 µM; with HOP-62 NSCLC, 0.296 µM; with M14 melanoma, 0.214 µM. Further, the GI50 in the assay with MALME-3M melanoma was 0.811 µM; with NCI-H460 lung, 0.198 µM; in the assay with PC-3 prostate, 0.258 µM; with SF-268 CNS it was 0.375 µM. The TGI in the assay on A498 renal was 1.64 µM; in the assay with A549 NSCLC it was above 50 µM; with CAKI-1 renal, above 50 µM; in the assay with HOP-62 NSCLC, above 50 µM; with M14 melanoma, above 50 µM; with MALME-3M melanoma, above 50 µM. Further, the results for the TGI with NCI-H460 lung, with PC-3 prostate and with SF-268 CNS were 10.3 µM, above 50 µM and above 50 µM, respectively.
For the compound `COc1ccc2c(c1)c(-c1nc(-c3cn(C)c4ncccc34)cs1)cn2CCCCN1CCOCC1`, the GI50 in the assay on A498 renal was 0.164 µM; in the assay with A549 NSCLC, 1.71 µM; with CAKI-1 renal, 1.39 µM; in the assay on HL-60(TB) leukemia, 1.84 µM; in the assay with HOP-62 NSCLC, 1.76 µM; in the assay with M14 melanoma, 0.606 µM. The GI50 with MALME-3M melanoma is 1.65 µM; in the assay with NCI-H460 lung, 1.19 µM; with PC-3 prostate, 1.12 µM; with SF-268 CNS it was 1.49 µM. Moreover, the TGI with A498 renal was determined as 1.78 µM; in the assay on A549 NSCLC, 3.71 µM; in the assay on CAKI-1 renal it was 2.89 µM; in the assay on HL-60(TB) leukemia it was 4.37 µM; with HOP-62 NSCLC it was 3.64 µM; in the assay on M14 melanoma, 1.28 µM. In addition, the TGI in the assay with MALME-3M melanoma is 3.41 µM; in the assay with NCI-H460 lung, 2.91 µM; in the assay on PC-3 prostate, 3.26 µM; in the assay with SF-268 CNS it was 3.3 µM.
Consider `CC(C)NCCCCCNc1cc(O)cc2cccnc12`, for which the TGI in the assay with A498 renal is above 100 µM; in the assay on A549 NSCLC, above 100 µM; in the assay on CAKI-1 renal it was above 100 µM; with HL-60(TB) leukemia, 4.36 µM; in the assay on HOP-62 NSCLC it was above 100 µM; in the assay on M14 melanoma, above 100 µM. Besides, the TGI in the assay on MALME-3M melanoma, with NCI-H460 lung, with PC-3 prostate and with SF-268 CNS was above 100 µM in each case. Further, the GI50 was above 100 µM in the assay with A549 NSCLC; above 100 µM in the assay on CAKI-1 renal; 0.751 µM in the assay on HL-60(TB) leukemia; above 100 µM in the assay on HOP-62 NSCLC; above 100 µM with M14 melanoma; above 100 µM in the assay on NCI-H460 lung. Also, the GI50 with PC-3 prostate and with SF-268 CNS was above 100 µM each time.
Turning to `COc1ccc(NC(=O)CC(=O)n2nc(-c3ccccc3)c(N=Nc3ccccc3C)c2-c2ccccc2)cc1`, the TGI in the assay on A498 renal is 52.6 µM; in the assay with A549 NSCLC, 41.7 µM; with CAKI-1 renal, above 64.8 µM; in the assay with HL-60(TB) leukemia, above 100 µM; with HOP-62 NSCLC, 33.8 µM; in the assay on M14 melanoma, above 100 µM. In addition, the TGI in the assay with MALME-3M melanoma is 81.9 µM; in the assay on NCI-H460 lung, 53.5 µM; in the assay on PC-3 prostate, 32.8 µM; in the assay on SF-268 CNS, 35.7 µM.
Turning to `COc1ccc(OC)c(-c2cc(C(=O)O)c3cc4ccccc4cc3n2)c1`, the TGI with A498 renal, in the assay on A549 NSCLC, with CAKI-1 renal, in the assay on HL-60(TB) leukemia, with HOP-62 NSCLC and in the assay on M14 melanoma was above 100 µM throughout. Further, the TGI with MALME-3M melanoma, in the assay with NCI-H460 lung, in the assay with PC-3 prostate and in the assay with SF-268 CNS was above 100 µM each time.
As to `O=[N+]([O-])c1ccc(NN=C2c3ccccc3Cc3ccccc32)c([N+](=O)[O-])c1`, the TGI is above 100 µM in the assay with A498 renal; above 100 µM in the assay with A549 NSCLC; above 100 µM with CAKI-1 renal; above 30 µM with HL-60(TB) leukemia; above 100 µM with HOP-62 NSCLC; above 100 µM with M14 melanoma. The TGI in the assay on MALME-3M melanoma, in the assay on NCI-H460 lung, with PC-3 prostate and in the assay with SF-268 CNS was above 100 µM in each case.
As for `CN1CCN(CCCN2c3ccccc3Sc3ccc(C(F)(F)F)cc32)CC1`, the GI50 with A498 renal was 2.4 µM; in the assay on A549 NSCLC it was 2.31 µM; with CAKI-1 renal, 1.55 µM; in the assay with HL-60(TB) leukemia, 2.78 µM; with HOP-62 NSCLC, 1.73 µM; in the assay on MALME-3M melanoma it was 1.69 µM. Besides, the figures for the GI50 in the assay with NCI-H460 lung, in the assay with PC-3 prostate and with SF-268 CNS were 1.99 µM, 2.31 µM and 3.72 µM, respectively. Besides, the TGI with A498 renal was 12.9 µM and 29.5 µM and 26.7 µM; in the assay on A549 NSCLC it was 6.47 µM and 24.5 µM and 25.2 µM; in the assay with CAKI-1 renal, 3.36 µM and 22.4 µM and 23 µM; in the assay with HL-60(TB) leukemia, 4.92 µM and 17.7 µM and 22.7 µM; in the assay on HOP-62 NSCLC it was 3.94 µM and 24.9 µM and 26.5 µM; with M14 melanoma it was 3.53 µM and 3.38 µM and 3.35 µM. The TGI in the assay with MALME-3M melanoma is 3.28 µM and 3.66 µM and 6.98 µM; in the assay on NCI-H460 lung, 4.15 µM and 5.21 µM and 12.1 µM; in the assay on PC-3 prostate it was 8.42 µM and 16.8 µM and 17.5 µM; in the assay on SF-268 CNS, 14.3 µM and 25.4 µM and 26.2 µM.

(Values after PubChem BioAssay (NCI).)
